From patent publication US7253318B2, “Benzyloxy derivatives as MAOB inhibitors” (Hoffman-La Roche Inc., priority 2004, dated 2007) come the findings set out here.

Molecules are shown by their SMILES.

As a reminder, the IC50 is the concentration at which inhibition is half-maximal. Higher therefore signals a need for much substance.

The target of assay [1] is T1, human MAO-B (Homo sapiens, UniProt P27338).
T1 construct: expressed in transfected cells; host or cells: EBNA cells (transient transfection), membrane preparation
T1 sequence (P27338 1-520): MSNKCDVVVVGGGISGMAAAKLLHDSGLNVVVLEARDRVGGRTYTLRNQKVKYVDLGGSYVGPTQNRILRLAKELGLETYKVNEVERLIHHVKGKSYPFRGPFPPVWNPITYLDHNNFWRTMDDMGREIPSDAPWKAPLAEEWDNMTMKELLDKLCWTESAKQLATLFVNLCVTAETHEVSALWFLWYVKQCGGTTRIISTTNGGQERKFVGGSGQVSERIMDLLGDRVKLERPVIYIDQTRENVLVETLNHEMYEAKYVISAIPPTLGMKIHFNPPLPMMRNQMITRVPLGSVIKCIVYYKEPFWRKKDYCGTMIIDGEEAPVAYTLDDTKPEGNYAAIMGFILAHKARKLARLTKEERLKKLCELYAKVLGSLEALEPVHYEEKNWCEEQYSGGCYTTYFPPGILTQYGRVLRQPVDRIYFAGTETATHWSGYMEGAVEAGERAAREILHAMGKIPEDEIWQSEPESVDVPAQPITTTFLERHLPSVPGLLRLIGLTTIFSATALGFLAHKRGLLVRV
The assay is described as follows: MAO-B enzymatic activity, spectrophotometric assay (Amplex Red, tyramine substrate) on membranes of transfected EBNA cells. It counts as biochemical. The conditions noted are these: membranes of EBNA cells transfected with human MAO-B cDNA, 30 min preincubation at 37° C., pH 7.4. How it is done:
(§1) The cDNA's encoding human MAO-A and MAO-B were transiently transfected into EBNA cells using the procedure described by Schlaeger and Christensen [Cytotechnology 15:1-13 (1998)]. After transfection, cells were homogenised by means of a Polytron homogenizer in 20 mM Tris HCl buffer, pH 8.0, containing 0.5 mM EGTA and 0.5 mM phenylmethanesulfonyl fluoride. Cell membranes were obtained by centrifugation at 45,000×g and, after two rinsing steps with 20 mM Tris HCl buffer, pH 8.0, containing 0.5 mM EGTA, membranes were eventually re-suspended in the above buffer and aliquots stored at −80° C. until use.
(§2) MAO-A and MAO-B enzymatic activity was assayed in 96-well-plates using a spectrophotometric assay adapted from the method described by Zhou and Panchuk-Voloshina [Analytical Biochemistry 253:169-174 (1997)]. Briefly, membrane aliquots were incubated in 0.1 M potassium phosphate buffer, pH 7.4, for 30 min at 37° C. with or without various concentrations of the compounds. After this period, the enzymatic reaction was started by the addition of the MAO substrate tyramine together with 1 U/ml horse-radish peroxidase (Roche Biochemicals) and 80 μM N-acetyl-3,7,-dihydroxyphenoxazine (Amplex Red, Molecular Probes). The samples were further incubated for 30 min at 37° C. in a final volume of 200 μl and absorbance was then determined at a wavelength of 570 nm using a SpectraMax plate reader (Molecular Devices). Background (non-specific) absorbance was determined in the presence of 10 μM clorgyline for MAO-A or 10 μM L-deprenyl for MAO-B.
(§3) IC50 values were determined from inhibition curves obtained using nine inhibitor concentrations in duplicate, by fitting data to a four parameter logistic equation using a computer program.

Assay [2] addresses T2, human MAO-A (Homo sapiens, UniProt P21397).
T2 construct: expressed in transfected cells; host or cells: EBNA cells (transient transfection), membrane preparation
T2 sequence (P21397 1-527): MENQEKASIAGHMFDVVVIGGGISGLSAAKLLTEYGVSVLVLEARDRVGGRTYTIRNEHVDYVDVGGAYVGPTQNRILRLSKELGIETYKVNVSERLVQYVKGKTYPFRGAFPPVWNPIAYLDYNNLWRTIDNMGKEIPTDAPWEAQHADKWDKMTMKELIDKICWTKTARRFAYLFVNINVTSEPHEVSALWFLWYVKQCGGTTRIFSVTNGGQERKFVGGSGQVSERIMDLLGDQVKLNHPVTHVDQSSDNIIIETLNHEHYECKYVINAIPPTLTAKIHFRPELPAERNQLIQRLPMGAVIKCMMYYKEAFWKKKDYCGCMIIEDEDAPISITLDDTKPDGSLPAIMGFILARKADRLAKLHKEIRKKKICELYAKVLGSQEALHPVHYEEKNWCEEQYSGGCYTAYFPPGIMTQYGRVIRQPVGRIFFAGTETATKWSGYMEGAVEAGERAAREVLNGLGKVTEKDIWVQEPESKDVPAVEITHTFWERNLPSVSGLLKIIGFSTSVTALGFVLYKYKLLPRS
As to the kind of experiment: MAO-A enzymatic activity, spectrophotometric assay (Amplex Red, tyramine substrate) on membranes of transfected EBNA cells. It counts as biochemical. The settings on record: membranes of EBNA cells transfected with human MAO-A cDNA, 30 min preincubation at 37° C., pH 7.4. As to the method:
as §1, §2, §3

`CNC(=O)C(C)Oc1ccc(OCc2cccc(F)c2)cc1` (racemic) [Example 11, (RS)-2-[4-(3-Fluoro-benzyloxy)-phenoxy]-N-methyl-propionamide]: the IC50 in assay [1] is 0.031 µM; in assay [2], more than 10 µM.
On the same counts, the results for `CNC(=O)C(C)Oc1ccc(OCc2cccc(Cl)c2)cc1` (racemic) [Example 12, (RS)-2-[4-(3-Chloro-benzyloxy)-phenoxy]-N-methyl-propionamide] are 0.015 µM and more than 10 µM.
With `CNC(=O)C(C)Oc1ccc(OCc2ccc(C#N)cc2)cc1` (racemic) [Example 14, (RS)-2-[4-(4-Cyano-benzyloxy)-phenoxy]-N-methyl-propionamide], the values for the IC50 in assay [1] and in assay [2] were 0.031 µM and more than 10 µM, respectively.
In the same order, the values of `CCC(Oc1ccc(OCc2cccc(F)c2)cc1)C(=O)NC` (racemic) [Example 17, (RS)-2-[4-(3-Fluoro-benzyloxy)-phenoxy]-N-methyl-butyramide] are 0.056 µM and more than 10 µM.
Consider `CCC(Oc1ccc(OCc2cccc(Cl)c2)cc1)C(=O)NC` (racemic) [Example 18, (RS)-2-[4-(3-Chloro-benzyloxy)-phenoxy]-N-methyl-butyramide], for which the IC50 in assay [1] is 0.028 µM; in assay [2], more than 10 µM.
On the same counts, the results for `CCC(Oc1ccc(OCc2ccc(C#N)cc2)cc1)C(=O)NC` (racemic) [Example 19, (RS)-2-[4-(4-Cyano-benzyloxy)-phenoxy]-N-methyl-butyramide] are 0.074 µM and more than 10 µM.
Turning to `CNC(=O)C(C)Oc1ccc(OCc2cccc(Cl)c2)cc1` (single isomer, unassigned) [Example 13, (S or R)-2-[4-(3-Chloro-benzyloxy)-phenoxy]-N-methyl-propionamide], the IC50 in assay [1] was 0.009 µM; in assay [2], more than 10 µM.
For the compound `CNC(=O)COc1ccc(OCc2ccccc2)cc1` [Example 2, 2-(4-Benzyloxy-phenoxy)-N-methyl-acetamide], the IC50 in assay [1] was 0.052 µM; in assay [2], more than 10 µM.
On the same counts, the results for `CNC(=O)COc1ccc(OCc2ccc(C#N)cc2)cc1` [Example 3, 2-[4-(4-Cyano-benzyloxy)-phenoxy]-N-methyl-acetamide] are 0.028 µM and 2.86 µM.
On the same counts, the results for `CNC(=O)COc1ccc(OCc2ccc(Cl)cc2)cc1` [Example 4, 2-[4-(4-Chloro-benzyloxy)-phenoxy]-N-methyl-acetamide] are 0.012 µM and 2.44 µM.
On the same counts, the results for `CNC(=O)COc1ccc(OCc2ccccc2F)cc1` [Example 5, 2-[4-(2-Fluoro-benzyloxy)-phenoxy]-N-methyl-acetamide] are 0.081 µM and more than 9 µM.
With `CNC(=O)COc1ccc(OCc2cccc(F)c2)cc1` [Example 6, 2-[4-(3-Fluoro-benzyloxy)-phenoxy]-N-methyl-acetamide], the IC50 in assay [1] is 0.021 µM; in assay [2], more than 10 µM.
In the same order, the values of `CNC(=O)COc1ccc(OCc2ccc(F)cc2)cc1` [Example 7, 2-[4-(4-Fluoro-benzyloxy)-phenoxy]-N-methyl-acetamide] are 0.009 µM and 5.4 µM.
On the same counts, the results for `NC(=O)CCOc1ccc(OCc2cccc(F)c2)cc1` [Example 23, 3-[4-(3-Fluoro-benzyloxy)-phenoxy]-propionamide] are 0.044 µM and more than 10 µM.
As for `NC(=O)OCCc1ccc(OCc2cccc(F)c2)cc1` [Example 24, Carbamic acid 2-[4-(3-fluoro-benzyloxy)-phenyl]-ethyl ester], the values for the IC50 in assay [1] and in assay [2] were 0.068 µM and more than 10 µM, respectively.
On the same counts, the results for `CNC(=O)OCc1ccc(OCc2cccc(F)c2)cc1` [Example 26, Methyl-carbamic acid 4-(3-fluoro-benzyloxy)-benzyl ester] are 0.089 µM and more than 10 µM.
In the same order, the values of `NC(=O)COCc1ccc(OCc2cccc(F)c2)cc1` [Example 27, 2-[4-(3-Fluoro-benzyloxy)-benzyloxy]-acetamide] are 0.051 µM and more than 10 µM.
